Results published in patent US8853424B2 (Japan Science and Technology Agency, priority 2008, dated 2014).
pIC50: −log10 of the molar value. Read-outs that look alike come from different tables or passages of the source.

Columns and labels:
transglutaminase (TGase) = assay: Measurement of TG (TGase inhibitory activity, monodansyl cadaverine / N,N-dimethylcasein fluorescence, FDSS 3000); assay type: biochemical
How it was run: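 Compound (1 μL of 10 mM stock) added to 0.1 mL reaction: 100 mM HEPES-NaOH pH 7.5, 1 mM CaCl2, 20 μM monodansyl cadaverine, 0.05 mg/mL N,N-dimethylcasein, 5 μg/mL TGase. Rate of fluorescence change at 340 nm measured; DMSO control set to 100; TG50 is the concentration halving activity.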

[1] = system: Truncated N-terminal huntington 150 Q-EGFP-Neuron 2a cells; assay: Measurement of x-Fold (polyglutamine aggregation inhibitory activity); assay type: cell-based
Protocol: In the present invention, the polyglutamine aggregation inhibitory activity (x-Fold) can be measured, for example, by the method described in the Example.
The number of the aggregated cells, and the total number of cells were counted by Array Scan V T1 (manufactured by Cellomics, Pittuburg, USA), and the ratio of the aggregated cells to the total number of cells was determined (x-Fold). […]

[2] = system: SOC (store operated calcium channel); assay: Measurement of SOC IC50 (thapsigargin store depletion, calcium re-addition, CHO cells); assay type: cell-based; conditions: read-out: SOC IC50
Protocol: The SOC (store operated calcium channel)-suppressive action can be measured by the method described in the Example and using, for example, FDSS 3000.
CHO cell culture medium was replaced with a BSS solution which is an extracellular fluidfree of calcium, the compound of the present invention was added 1 min later, and 1 μM thapsigargin was allowed to act thereon 2 min later to deplete intracellular calcium store. […]

[3] = target: T1, SOCE (ICRAC) reconstituted by STIM1 and Orail (CRACM1) (Homo sapiens, UniProt Q96D31); assay: ICRAC whole cell patch clamp in HEK293 cells forcibly expressing STIM1 and Orail (CRACM1); assay type: cell-based; conditions: inward current at −80 mV
T1 construct: expressed in transfected cells; host or cells: HEK293 cells
Source text: FIG. 2 is a drawing showing an Icrac inhibitory effect of 163AE, and the vertical axis and the horizontal axis show the same as in FIG. 1.
The effects of 162AE (bis(3,3′-(phenylaminoethoxyboryl)benzyl)ether described in Example 8) and 163AE (bis(4,4′-(phenylaminoethoxyboryl)benzyl)ether described in Example 131) for ICRAC, whose molecular entity as one of SOCE has been clarified, were investigated using an electrophysiological method. STIM1 and Orail (CRACM1) were forcibly expressed in HEK293 cells, and whole cell records were taken by the Patch clamp technique. BAPTA (20 mM), which is a calcium chelator, and IP3 (20 μM) that depletes intracellular calcium store were added to a recording electrode internal solution (120 mM Cs-glutamate, 10 mM HEPES, 3 mM MgCl2), 10 mM calcium was added to an extracellular solution to facilitate observation of calcium electric current, and a ramp command from −150 mV to +150 mV was input at 0.5 Hz to obtain a current-voltage curve. For quantification of SOCE, the size of the inward current at −80 mV was used as an index. After the start of the whole cell recording, time was taken to sufficiently activate SOCE (ICRAC), and compounds 162AE and 163AE as inhibitors were administered to the cells. […]

[4] = TGase activity with compound (10 mM, 1 μL in 0.1 ml enzyme reaction solution), DMSO control taken as 100
[5] = TGase inhibitory activity value, Table 1
[6] = polyglutamine aggregation inhibitory activity, Table 1
[7] = ratio of aggregated cells to total number of cells, compound 20 μM, 20 hr, almost 1 without compound, smaller = stronger inhibition
[8] = CHO cells, 1 μM thapsigargin, 2 mM calcium chloride
[9] = Cricetulus griseus, CHO, CHO cells, 1 μM thapsigargin, 2 mM calcium chloride
[10] = TGase inhibitory activity measurement, unit not given
[11] = polyglutamine aggregation, Truncated N-terminal huntington 150 Q-EGFP-Neuron 2a cells

T1 sequence (Q96D31 whole entry): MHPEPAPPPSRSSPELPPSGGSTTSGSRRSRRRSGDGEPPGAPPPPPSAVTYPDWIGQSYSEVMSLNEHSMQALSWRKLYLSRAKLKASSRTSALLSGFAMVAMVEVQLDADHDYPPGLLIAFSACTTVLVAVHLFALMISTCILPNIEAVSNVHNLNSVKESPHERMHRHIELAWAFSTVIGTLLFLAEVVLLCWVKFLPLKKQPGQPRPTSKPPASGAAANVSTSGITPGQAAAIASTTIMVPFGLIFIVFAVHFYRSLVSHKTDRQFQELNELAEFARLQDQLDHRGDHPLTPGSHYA

Compound	TGase activity remaining (% of DMSO control = 100) (transglutaminase (TGase); [4])	pIC50 [2, 8]	TGase activity remaining (% of DMSO control = 100) (transglutaminase (TGase); [10])	x-Fold [1, 7]	x-Fold [1, 11]	further results
NCCOB(c1ccccc1)c1ccc(COCc2ccc(B(OCCN)c3ccccc3)cc2)cc1 [Example 131, bis((4,4′-phenylaminoethoxyboryl)benzyl)ether]	–	–	–	1.1	–	x-Fold [1, 6]: 1.1; pIC50 [2, 9]: 6.52; pIC50 ([2]; Cricetulus griseus, CHO, Table 1): 6.52; pIC50 [3]: 6.77
CC(CNCCN)OB(c1ccccc1)c1cccc(COCc2cccc(B(OC(C)CNCCN)c3ccccc3)c2)c1 (centres unmarked) [Example 470, bis(3,3′-(phenyl-N-aminoethyl-1-methyl-2-aminoethoxyboryl)benzyl)ether]	19	6.52	19	1.02	1.02	–
NCCC(N)C(=O)OB(c1ccccc1)c1cccc(COCc2cccc(B(OC(=O)C(N)CCN)c3ccccc3)c2)c1 (centres unmarked) [Example 472, bis(3,3′-(phenyl-2,4-diaminobutyric acid boryl)benzyl)ether]	47	6.00	47	0.95	0.95	–
NC(=O)CC(N)C(=O)OB(c1ccccc1)c1cccc(COCc2cccc(B(OC(=O)C(N)CC(N)=O)c3ccccc3)c2)c1 (centres unmarked) [Example 474, bis(3,3′-(phenyl-asparagineboryl)benzyl)ether]	145	6.30	–	1.04	–	TGase activity remaining (% of DMSO control = 100) (transglutaminase (TGase); TGase inhibitory activity measurement, unit not given, listed as 3031): 145; x-Fold ([1]; polyglutamine aggregation, Truncated N-terminal huntington 150 Q-EGFP-Neuron 2a cells, listed as 3031): 1.04
NCCCCC(N)C(=O)OB(c1ccccc1)c1cccc(COCc2cccc(B(OC(=O)C(N)CCCCN)c3ccccc3)c2)c1 (centres unmarked) [Example 475, bis(3,3′-(phenyl-lysineboryl)benzyl)ether]	21	6.22	21	1.01	1.01	–
NC(COB(c1ccccc1)c1ccc(COCc2ccc(B(OCC(N)Cc3ccccc3)c3ccccc3)cc2)cc1)Cc1ccccc1 (centres unmarked) [Example 479, bis(4,4′-(phenyl-2-benzyl-2-amino-ethoxyboryl)benzyl)ether]	54	5.82	54	1.00	1.00	–
NC(COB(c1ccccc1)c1ccc(Oc2ccc(B(OCC(N)Cc3ccccc3)c3ccccc3)cc2)cc1)Cc1ccccc1 (centres unmarked) [Example 480, bis(4,4′-(phenyl-2-benzyl-2-amino-ethoxyboryl)phenyl)ether]	59	5.82	59	0.66	0.66	–
OB(c1ccccc1)c1ccccc1COCc1ccccc1B(O)c1ccccc1 [Example 486, bis(2,2′-(phenylhydroxyboryl)benzyl)ether]	52	6.30	–	1.04	–	–
NCCOB(c1ccccc1)c1ccccc1 [Example 487, 2-aminoethyl diphenylborinate]	90	–	–	0.64	–	pIC50 ([2]; Cricetulus griseus, CHO): 5.52
OB(c1ccccc1)c1ccccc1 [Example 488, diphenylborinic acid]	108	–	108	1.01	1.01	x-Fold [1, 6]: 0.83; pIC50 [2, 9]: 5.40; pIC50 ([2]; Cricetulus griseus, CHO, CHO cells, thapsigargin store depletion): 5.40
bis(3,3′-(phenyl-2-benzyl-2-amino-ethoxyboryl)benzyl)ether [Example 481]	48	5.82	48	0.80	0.80	–
diphenyl(tyrosinate-O,N)borane [Example 264]	109	5.30	–	1.00	–	TGase activity remaining (% of DMSO control = 100) (transglutaminase (TGase); [5]): 109; x-Fold [1, 6]: 1.00

Further lines, with some results ahead:

TGase activity remaining (% of DMSO control = 100) (transglutaminase (TGase); [4])	pIC50 [2, 8]	TGase activity remaining (% of DMSO control = 100) (transglutaminase (TGase); [10])	Compound	x-Fold [1, 7]	x-Fold [1, 11]	further results
24	6.70	–	NCCOB(c1ccccc1)c1cccc(COCc2cccc(B(OCCN)c3ccccc3)c2)c1 [Example 8, bis(3,3′-(phenylaminoethoxyboryl)benzyl)ether]	1.1	–	TGase activity remaining (% of DMSO control = 100) (transglutaminase (TGase); [5]): 24; x-Fold [1, 6]: 1.1; pIC50 [3]: 7.07
52	6.22	52	NC(=O)CCC(N)C(=O)OB(c1ccccc1)c1cccc(COCc2cccc(B(OC(=O)C(N)CCC(N)=O)c3ccccc3)c2)c1 (centres unmarked) [Example 471, bis(3,3′-(phenyl-glutamineboryl)benzyl)ether]	1.04	1.04	–
–	6.30	−4	CCCCNCCOB(c1ccccc1)c1cccc(COCc2cccc(B(OCCNCCCC)c3ccccc3)c2)c1 [Example 473, bis(3,3′-(phenyl-N-butylaminoethoxyboryl)benzyl)ether]	0.96	0.96	–
103	5.82	103	NCCCC(N)C(=O)OB(c1ccccc1)c1cccc(COCc2cccc(B(OC(=O)C(N)CCCN)c3ccccc3)c2)c1 (centres unmarked) [Example 476, bis(3,3′-(phenyl-ornithineboryl)benzyl)ether]	0.95	0.95	–
108	5.82	–	bis(3-chloro-4-methylphenyl 2-pyridylmethoxyborylphenyl)ether [Example 117]	0.06	–	–
−4	6.82	–	bis(4,4′-(phenylaminoethoxyboryl)phenyl)ether [Example 5]	0.60	–	TGase activity remaining (% of DMSO control = 100) (transglutaminase (TGase); [5]): −4; x-Fold [1, 6]: 0.60
